Test results published in article PMC11956012, “Optimization of Cyclophilin B-Targeted Tri-vector Inhibitors for Novel MASH Treatments” (Journal of Medicinal Chemistry, 2025).
Where two headings read alike, the source gives them in different places.

Key:
[1] = test system: iPSC-derived hepatocytes; assay: In vitro hepatic steatosis (MASH) assay; format: cell-based; details: 48 h treatment; for EC50: Hepatocyte, 48 h
[2] = Intrinsic clearance, rat liver microsomes; format: in vitro ADME
[3] = Intrinsic clearance, human liver microsomes; format: in vitro ADME
[4] = Intrinsic clearance, rat hepatocytes; format: in vitro ADME; details: hepatocytes
[5] = Intrinsic clearance, human hepatocytes; format: in vitro ADME; details: hepatocytes
[6] = Rat plasma protein binding; format: in vitro ADME
From the text: (§1) These experiments were subcontracted to Eurofins. […]

[7] = Human plasma protein binding; format: in vitro ADME
From the text: as §1

[8] = test system: CYP1A; assay: Cytochrome P450 inhibition CYP1A; format: in vitro ADME; details: human, probe phenacetin; single point at 10 μM; substrate phenacetin
[9] = target: T1, CYP2B6 (Homo sapiens, UniProt P20813); assay: Cytochrome P450 inhibition CYP2B6; format: in vitro ADME; details: single point at 10 μM; substrate bupropion
T1 construct: Eurofins (subcontracted)
T1 sequence (P20813 1-491): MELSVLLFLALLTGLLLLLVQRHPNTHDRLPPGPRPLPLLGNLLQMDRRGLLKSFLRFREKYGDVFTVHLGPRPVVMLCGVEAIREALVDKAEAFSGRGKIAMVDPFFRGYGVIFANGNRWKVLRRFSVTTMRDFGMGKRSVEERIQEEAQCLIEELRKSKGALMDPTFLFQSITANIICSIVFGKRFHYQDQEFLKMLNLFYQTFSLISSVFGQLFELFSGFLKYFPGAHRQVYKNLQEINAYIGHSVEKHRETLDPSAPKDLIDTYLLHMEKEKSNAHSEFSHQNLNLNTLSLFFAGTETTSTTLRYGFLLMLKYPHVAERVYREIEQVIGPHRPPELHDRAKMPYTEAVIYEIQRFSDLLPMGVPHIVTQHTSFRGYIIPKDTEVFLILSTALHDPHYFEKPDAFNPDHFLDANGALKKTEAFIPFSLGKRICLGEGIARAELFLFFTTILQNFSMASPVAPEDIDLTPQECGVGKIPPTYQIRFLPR

[10] = target: T2, CYP2C8 (Homo sapiens, UniProt P10632); assay: Cytochrome P450 inhibition CYP2C8; format: in vitro ADME; details: single point at 10 μM; substrate amodiaquine
T2 construct: Eurofins (subcontracted)
T2 sequence (P10632 1-490): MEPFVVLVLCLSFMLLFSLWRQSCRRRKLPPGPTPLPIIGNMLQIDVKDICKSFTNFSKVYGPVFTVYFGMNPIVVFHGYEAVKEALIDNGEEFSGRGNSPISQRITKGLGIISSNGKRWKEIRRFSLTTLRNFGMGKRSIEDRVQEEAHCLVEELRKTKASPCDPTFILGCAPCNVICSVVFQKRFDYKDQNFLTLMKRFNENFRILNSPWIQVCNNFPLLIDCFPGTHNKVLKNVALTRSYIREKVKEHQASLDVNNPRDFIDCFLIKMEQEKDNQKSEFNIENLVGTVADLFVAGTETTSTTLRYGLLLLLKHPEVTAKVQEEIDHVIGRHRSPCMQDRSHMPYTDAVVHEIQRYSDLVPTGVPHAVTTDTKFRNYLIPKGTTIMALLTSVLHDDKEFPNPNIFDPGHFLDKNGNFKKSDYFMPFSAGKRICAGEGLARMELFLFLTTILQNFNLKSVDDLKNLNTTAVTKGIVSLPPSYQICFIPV

[11] = target: T3, CYP2C9 (Homo sapiens, UniProt P11712); assay: Cytochrome P450 inhibition CYP2C9; format: in vitro ADME; details: single point at 10 μM; substrate diclofenac
T3 construct: Eurofins (subcontracted)
T3 sequence (P11712 whole entry): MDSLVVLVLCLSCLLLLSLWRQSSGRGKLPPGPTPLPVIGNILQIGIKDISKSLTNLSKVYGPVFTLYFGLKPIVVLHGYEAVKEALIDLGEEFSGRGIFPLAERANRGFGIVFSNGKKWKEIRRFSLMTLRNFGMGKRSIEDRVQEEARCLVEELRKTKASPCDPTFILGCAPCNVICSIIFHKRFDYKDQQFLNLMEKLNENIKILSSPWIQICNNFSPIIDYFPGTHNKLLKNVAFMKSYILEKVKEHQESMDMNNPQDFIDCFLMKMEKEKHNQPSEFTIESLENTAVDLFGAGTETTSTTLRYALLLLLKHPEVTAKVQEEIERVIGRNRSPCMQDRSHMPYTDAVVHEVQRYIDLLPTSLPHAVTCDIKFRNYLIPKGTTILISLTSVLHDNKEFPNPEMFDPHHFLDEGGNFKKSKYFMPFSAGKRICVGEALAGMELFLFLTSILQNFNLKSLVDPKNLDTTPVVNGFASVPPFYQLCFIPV

[12] = target: T4, CYP2C19 (Homo sapiens, UniProt P33261); assay: Cytochrome P450 inhibition CYP2C19; format: in vitro ADME; details: single point at 10 μM; substrate omeprazole
T4 construct: Eurofins (subcontracted)
T4 sequence (P33261 whole entry): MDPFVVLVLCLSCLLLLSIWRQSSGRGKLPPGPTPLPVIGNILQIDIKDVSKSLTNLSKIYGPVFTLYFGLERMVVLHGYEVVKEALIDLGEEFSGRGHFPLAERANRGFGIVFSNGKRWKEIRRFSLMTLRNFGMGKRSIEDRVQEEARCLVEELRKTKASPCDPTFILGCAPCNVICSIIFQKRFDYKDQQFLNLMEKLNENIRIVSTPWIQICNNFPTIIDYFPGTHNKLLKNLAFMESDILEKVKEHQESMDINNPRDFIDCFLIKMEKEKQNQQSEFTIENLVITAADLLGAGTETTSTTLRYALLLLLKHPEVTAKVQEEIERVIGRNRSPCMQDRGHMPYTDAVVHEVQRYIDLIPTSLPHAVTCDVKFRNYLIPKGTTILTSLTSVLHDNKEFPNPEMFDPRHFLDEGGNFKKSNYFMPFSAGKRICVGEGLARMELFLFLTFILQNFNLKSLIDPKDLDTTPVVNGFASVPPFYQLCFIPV

[13] = target: T5, CYP2D6 (Homo sapiens, UniProt P10635); assay: Cytochrome P450 inhibition CYP2D6; format: in vitro ADME; details: single point at 10 μM; substrate dextrometorphan
T5 construct: Eurofins (subcontracted)
T5 sequence (P10635 whole entry): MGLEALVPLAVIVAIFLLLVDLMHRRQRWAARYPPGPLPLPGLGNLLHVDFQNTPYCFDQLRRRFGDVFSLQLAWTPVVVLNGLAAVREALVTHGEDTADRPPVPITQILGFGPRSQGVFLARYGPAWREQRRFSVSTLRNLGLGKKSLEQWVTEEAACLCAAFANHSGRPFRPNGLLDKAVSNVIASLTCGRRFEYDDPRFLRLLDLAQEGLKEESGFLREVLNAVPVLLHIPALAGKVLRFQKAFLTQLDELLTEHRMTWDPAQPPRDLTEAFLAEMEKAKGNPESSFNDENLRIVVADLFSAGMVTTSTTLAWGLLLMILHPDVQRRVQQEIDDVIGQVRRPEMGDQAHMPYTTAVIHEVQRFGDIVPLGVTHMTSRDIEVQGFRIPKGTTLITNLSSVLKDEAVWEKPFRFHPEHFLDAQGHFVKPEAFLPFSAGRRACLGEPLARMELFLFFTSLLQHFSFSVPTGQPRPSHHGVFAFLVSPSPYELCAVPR

[14] = test system: CYP3A; assay: Cytochrome P450 inhibition CYP3A; format: in vitro ADME; details: human, single point at 10 μM
[15] = target: T6, Cyp A (Homo sapiens, UniProt P62937)
T6 sequence (P62937 whole entry): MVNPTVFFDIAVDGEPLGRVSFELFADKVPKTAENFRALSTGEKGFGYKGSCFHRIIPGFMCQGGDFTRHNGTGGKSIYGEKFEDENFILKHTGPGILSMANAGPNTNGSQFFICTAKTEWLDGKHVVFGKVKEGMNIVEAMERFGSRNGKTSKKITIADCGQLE
Method: (§2) The cyclophilin binding properties of the compounds were assessed by Surface Plasmon Resonance (SPR) against Cyp A, B and D isoforms (Table 1, representative sensorgrams are shown in Figure 3A).[35]
Surface Plasmon Resonance (SPR)
(§3) SPR measurements were performed on a Biacore T200 instrument (Cytiva). Ni2+ -
(§4) nitrilotriacetic acid (NTA) sensor chips, 1-ethyl-3-(3-diaminopropyl) carbodiimide
(§5) hydrochloride (EDC) and N hydroxy succinimide (NHS) were purchased from Cytiva.
(§6) Immobilization and covalent stabilization of His-Cyps Pure His-cyclophilins on the NTA
(§7) sensor chip was performed essentially as described. [Wear et al., 2017, FEBS OpenBio], using
(§8) 200 nM concentrations of each protein, in Running Buffer (PBS, pH7.4; 0.05 % surfactant P20,
(§9) 2% v/v ethanol; 50 µM EDTA), at 30 µl min-1 with 60 second contact times on the activated
(§10) NTA surfaces. This gave signals of 1,921 RU for His-CypA, 1932 RU for His-CypB and 1,397
(§11) RU for His-CypD. Specific surface protein activity was assayed by passing saturating amounts
(§12) activity were obtained for His-CypA, -B and –D, respectively.
Kinetic titration experiments
(§13) Single cycle kinetic titration binding experiments were performed in triplicate at 25 °C. 3-fold
(§14) injected over the sensor surface, at 100 µl min-1 with a 90 s contact time and a 90 s dissociation
(§15) time. The sensor surface was regenerated between experiments by dissociating any formed
(§16) complex in running buffer for at least 1,200 seconds. The apparent on-rate (k+) and off-rate (k-
(§17) ) constants and the equilibrium dissociation constant (Kd) were calculated from reference

[16] = target: T7, Cyp B (Homo sapiens, UniProt P23284); details: from SPR Kd
T7 sequence (P23284 32-216 limits assumed): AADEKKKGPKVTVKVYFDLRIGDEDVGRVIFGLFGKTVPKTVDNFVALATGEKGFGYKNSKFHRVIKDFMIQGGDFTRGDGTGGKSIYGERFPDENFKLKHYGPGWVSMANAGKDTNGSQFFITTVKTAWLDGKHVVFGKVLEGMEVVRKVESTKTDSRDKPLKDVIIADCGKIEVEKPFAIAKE
Method: as §2
Surface Plasmon Resonance (SPR)
as §3, §4, §5, §6, §7, §8, §9, §10, §11, §12
Kinetic titration experiments
as §13, §14, §15, §16, §17

[17] = target: Cyp D (Homo sapiens, UniProt P30405)
Sequence of Cyp D (P30405 42-207): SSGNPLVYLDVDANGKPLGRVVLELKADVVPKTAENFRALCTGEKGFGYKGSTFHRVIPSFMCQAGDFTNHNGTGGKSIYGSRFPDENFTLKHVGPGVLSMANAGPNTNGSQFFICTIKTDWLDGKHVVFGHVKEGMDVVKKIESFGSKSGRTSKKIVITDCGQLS
Method: as §2
Surface Plasmon Resonance (SPR)
as §3, §4, §5, §6, §7, §8, §9, §10, §11, §12
Kinetic titration experiments
as §13, §14, §15, §16, §17

[18] = target: T7, Cyp B; assay: biochemical; details: Kd Cyp B, SPR-derived dissociation constant, 25 °C
Method: as §2
Surface Plasmon Resonance (SPR)
as §3, §4, §5, §6, §7, §8, §9, §10, §11, §12
Kinetic titration experiments
as §13, §14, §15, §16, §17

[19] = Caco-2 permeability; details: human, Caco-2
[20] = test system: Caco-2; assay: Caco-2 permeability; details: apparent permeability A-B
[21] = test system: Salmonella typhimurium TA98; assay: Ames fluctuation test TA98
Method: (§18) Bacterial cytotoxicity tests were carried out using Reverted Salmonella typhimurium strains
(§19) (TA98, TA100, TA1535, TA1537) that were incubated 96 hours at 37 Celsius. The results for
(§20) cytotoxicity are expressed as percent of control growth (OD650). Compounds with growth of
(§21) less than 60 % of control are flagged and considered cytotoxic.
(§22) Compounds were incubated for 96 hours at 37°C at 4 different concentrations (5 mM, 10 mM,
(§23) the absence and presence of rat liver S9 microsomes.
(§24) to the reversion of the histidine mutation (as judged by the ratio of OD430/OD570 being greater
(§25) than 1.0) are counted and recorded as positive counts. The significance of the positive counts
(§26) between the treatment (in the presence of test compound) and the control (in the absence of test
(§27) compound) are calculated using the one-tailed Fisher's exact test. Three significance levels are
(§28) Very strong positive, if p < 0.001, denoted as "+++"
(§29) Control experiments were carried out with 2-aminoanthracene (10 mM), 9-aminoacridine (10
(§30) mM), quercetin (30 mM) and streptozocitin (2.5 mM).

[22] = test system: Salmonella typhimurium TA100; assay: Ames fluctuation test TA100
Method: as §18, §19, §20, §21, §22, §23, §24, §25, §26, §27, §28, §29, §30

[23] = test system: Salmonella typhimurium TA1535; assay: Ames fluctuation test TA1535
Method: as §18, §19, §20, §21, §22, §23, §24, §25, §26, §27, §28, §29, §30

[24] = test system: Salmonella typhimurium TA1537; assay: Ames fluctuation test TA1537
Method: as §18, §19, §20, §21, §22, §23, §24, §25, §26, §27, §28, §29, §30

[25] = Aqueous kinetic solubility, shake-flask
Method: (§31) Kinetic solubility measurements were carried out using a shake-flask technique. Compounds
(§32) were incubated for 24 hours at room temperature. Aqueous solubility (μM) was determined by
(§33) comparing the peak area of the principal peak in a calibration standard (200 μM) containing
(§34) organic solvent (methanol/water, 60/40, v/v) with the peak area of the corresponding peak in a
(§35) buffer sample. In addition, chromatographic purity (%) was defined as the peak area of the
(§36) principal peak relative to the total integrated peak area in the HPLC chromatogram of the
(§37) calibration standard. A chromatogram of the calibration standard of each test compound, along
(§38) with a UV/VIS spectrum with labeled absorbance maxima, was generated.
(§39) These were measured using a shake-flask technique. Compounds were incubated for 60 min at
(§40) room temperature. The total amount of compound was determined as the peak area of the
(§41) principal peak in a calibration standard (100 μM) containing organic solvent (methanol/water,
(§42) 60/40, v/v). The amount of compound in buffer was determined as the combined, volume
(§43) corrected, and weighted areas of the corresponding peaks in the aqueous phases of three
(§44) organic-aqueous samples of different composition. An automated weighting system was used
(§45) to ensure the preferred use of raw data from those samples with well quantifiable peak signals.
(§46) The amount of compound in organic was calculated by subtraction. Subsequently, Log D was
(§47) calculated as the Log10 of the amount of compound in the organic phase divided by the amount
of compound in the aqueous phase.

[26] = Partition coefficient (Log D), shake-flask; details: octanol/water
Method: as §31, §32, §33, §34, §35, §36, §37, §38, §39, §40, §41, §42, §43, §44, §45, §46, §47
of compound in the aqueous phase.

[27] = test system: Salmonella typhimurium strains (TA98, TA100, TA1535, TA1537); assay: Ames tests, all strains (summary in words); details: in absence and presence of liver S9 fractions
Method: as §18, §19, §20, §21, §22, §23, §24, §25, §26, §27, §28, §29, §30

[28] = target: T6, Cyp A; assay: Isothermal titration calorimetry (ITC), Cyp A; format: binding; set-up: full-length human CypA (M1 – E165); made in house; host or cells: Escherichia coli OverExpress C41 BL21(DE3); details: 25 °C
Method: All ITC experiments were carried out at 25°C on a MicroCal Auto iTC200 (GE Healthcare)
solutions were heated to 65°C and/or sonicated prior to the experiment. Each experiment
consisted of an initial injection of 0.4 μL followed by repeated 2 μL injections to achieve
saturation. In all cases the first injection
was omitted from the data processing. All data were analysed using the MicroCal PEAQ-ITC
Analysis software. A fixed stoichiometry to 1 was applied during the non-linear regression of
the raw data for fitting the data.

For `CSc1ccccc1[C@H]1CCCN1C(=O)CNC(=O)N(Cc1ccc(N)c(Cl)c1)Cc1nnn(C)n1` [Compound 11, 1-[(4-Amino-3-chloro-phenyl)methyl]-1-[(2-methyltetrazol-5-yl)methyl]-3-[2-oxo-2-[(2R)-2-(2-methylsulfanylphenyl)pyrrolidin-1-yl]ethyl]urea], which “effect on hepatocyte overall lipid levels and lipid droplet size (in words)” value [1] is on record?
Its value is “significant reduction”.

What about the EC50 ([1]; 95% CI [lower limit, upper limit], read-out: EC50 steatosis) of the same compound?
The EC50 was ~300 nM.

What about the EC50 ([1]; read-out: EC50 MASH assay) of the same compound?
Its EC50 is 258 nM.

What about the microsomal CLint ([2]; Table 3, read-out: Rat Liver microsomes CL) of the same compound?
The microsomal CLint was 352 µL/min/mg.

And the half-life ([2]; read-out: Rat Liver microsomes t1/2)?
Its half-life is 20 min.

What about the microsomal CLint ([3]; Table 3, read-out: Human Liver microsomes CL) of the same compound?
Its microsomal CLint is 558 µL/min/mg.

What about the half-life ([3]; read-out: Human Liver microsomes t1/2) of the same compound?
The half-life was 12 min.

And the hepatocyte CLint ([4]; Table 3, read-out: Rat Hepatocytes CL)?
The hepatocyte CLint was 13 µL/min/1e6 cells.

What about the half-life ([4]; read-out: Rat Hepatocytes t1/2) of the same compound?
The half-life was 78 min.

And the hepatocyte CLint ([5]; Table 3, read-out: Human Hepatocytes CL)?
Its hepatocyte CLint is 13 µL/min/1e6 cells.

And the half-life ([5]; read-out: Human Hepatocytes t1/2)?
The half-life was 74 min.

What about the recovery at 10 μM [6] of the same compound?
Its recovery at 10 μM is 99%.

And the fraction unbound at 10 µM ([6]; read-out: Rat PPB free)?
Its fraction unbound at 10 µM is 0.11.

What about the recovery [7] of the same compound?
Its recovery is 88%.

And the fraction unbound at 10 µM ([7]; read-out: Human PPB free)?
Its fraction unbound at 10 µM is 0.02.

What about the inhibition at 10 µM [8] of the same compound?
Its inhibition at 10 µM is 25%.

What about the “CYP2B6 bupropion % inhibition” value [9] of the same compound?
Its value is 11%.

What about the “CYP2C8 amodiaquine % inhibition” value [10] of the same compound?
The value was 71%.

What about the “CYP2C9 diclofenac % inhibition” value [11] of the same compound?
Its value is 45%.

And the “CYP2C19 omeprazole % inhibition” value [12]?
The value was 72%.

What about the “CYP2D6 dextrometor. % inhibition” value [13] of the same compound?
Its value is 18%.

What about the inhibition at 10 µM ([14]; probe midazolam, substrate midazolam, read-out: CYP3A midazolam % inhibition) of the same compound?
The inhibition at 10 µM was 73%.

What about the inhibition at 10 µM ([14]; probe testoterone, substrate testoterone, read-out: CYP3A testoterone % inhibition) of the same compound?
Its inhibition at 10 µM is 59%.

What about the Kd [15] of the same compound?
The Kd was 110 ± 50 nM.

What about the “greater affinity for Cyp B compared to 12” value [16] of the same compound?
The value was “ca. 7 fold”.

What about the “selectivity for Cyp B over Cyp A” value [16] of the same compound?
Its value is 10 fold.

What about the “selectivity for Cyp B over Cyp A and Cyp D” value [16] of the same compound?
Its value is 10–20 fold.

What about the Kd [17] of the same compound?
Its Kd is 180 ± 100 nM.

And the Kd [18]?
Its Kd is 12 ± 3 nM.

What about the efflux ratio [19] of the same compound?
The efflux ratio was 2.8.

And the “Caco-2 A-B” value [20]?
The value was 5 10^–6 cm/s.

What about the “Ames fluctuation test TA98 +S9” value ([21]; with rat liver S9) of the same compound?
Its value is “neg/neg”.

And the “Ames fluctuation test TA98 –S9” value ([21]; without S9)?
The value was “neg/neg”.

What about the “Ames fluctuation test TA100 +S9” value ([22]; with rat liver S9) of the same compound?
Its value is “neg/neg”.

What about the “Ames fluctuation test TA100 –S9” value ([22]; without S9) of the same compound?
The value was “neg/neg”.

And the “Ames fluctuation test TA1535 +S9” value ([23]; with rat liver S9)?
Its value is “neg/neg”.

And the “Ames fluctuation test TA1535 –S9” value ([23]; without S9)?
Its value is “neg/neg”.

What about the “Ames fluctuation test TA1537 +S9” value ([24]; with rat liver S9) of the same compound?
The value was “neg/neg”.

And the “Ames fluctuation test TA1537 –S9” value ([24]; without S9)?
The value was “neg/neg”.

And the solubility at 24 h ([25]; PBS, pH 7.4)?
The solubility at 24 h was > 200 µM.

And the solubility at 24 h ([25]; simulated gastric fluid)?
The solubility at 24 h was > 200 µM.

What about the solubility at 24 h ([25]; simulated intestinal fluid) of the same compound?
Its solubility at 24 h is > 200 µM.

What about the logD at 1 h, 100 µM [26] of the same compound?
Its logD at 1 h, 100 µM is 1.53.

What about the “Ames result in all strains tested” value [27] of the same compound?
Its value is “negative”.

And the “DG (ITC)” value ([28]; ITC titration to Cyp A)?
The value was -9.7 ± 0.1 kcal/mol.

What about the “DH (ITC)” value ([28]; ITC titration to Cyp A) of the same compound?
Its value is -16.4 ± 0.1 kcal/mol.

And the “TDS (ITC)” value ([28]; ITC titration to Cyp A)?
Its value is -6.7 kcal/mol.

And the Kd ([28]; ITC, pH 6.5, 2% DMSO, read-out: Kd Cyp A from ITC)?
Its Kd is 82 ± 6 nM.
